From publication PMC12040169 (PLOS Biology, 2025)

Test: in vitro
Details: human, hela cells, % viability

Compound | viability at 28.5 h, 10 µM
Cc1cc(C)c2c(c1)COC1(CCN(Cc3ccccc3)CC1)O2 [CBK061572] | 102%
CS(=O)(=O)N1CC2(CCN(Cc3ccc(OC(F)(F)F)cc3)CC2)c2ccccc21 [CBK126668] | 99.4%
O=S(=O)(NN1CCOCC1)c1cc(Cl)cc(Cl)c1O [CBK269279] | 89.8%
c1ccc(CCNc2cc(-c3cccc4ccccc34)ncn2)nc1 [CBK037762] | 94.5%
O=C(O)CSc1nc2ccc(NC(=O)COc3ccc(Cl)cc3)cc2s1 [CBK299773] | 84.6%
CCC(=O)NCc1ccc(-c2cc(CN(C)C)n(C)n2)cc1 [CBK281668] | 103%
Cc1ccccc1CSCC(=O)N1CCN(c2ccccc2)CC1 [CBK058577] | 89%
CCc1ccc(C(O)CNC2CCN(c3nccs3)CC2)cc1 (centres unmarked) [CBK304215] | 94.3%
CC(=O)Nc1ccc(NC(=O)c2cnc(-c3ccc(F)cc3)c(-c3ccco3)c2)cc1 [CBK037977] | 98.8%
Cc1nnc(NCCO)c2ccccc12 [CBK261448] | 112%
CS(=O)(=O)Nc1nccnc1OC1CCN(CCc2c[nH]c3ccccc23)CC1 [CBK084282] | 119%
NNC(=O)/C(=C\c1ccccc1)CCO [CBK261215] | 117%
COc1ccc(CC(C(=O)O)C(=O)O)cc1OC [CBK262127] | 95.9%
COc1ccc(CC(=O)NC(CCSC)c2nc3ccccc3[nH]2)cc1 (centres unmarked) [CBK306050] | 82.6%
COc1cccc(Nc2nnc(-c3cc4cc(OC)ccc4oc3=O)s2)c1 [CBK264432] | 94.1%
O=C(O)/C=C/c1cn(-c2ccccc2)nc1-c1cccs1 [CBK263119] | 102%
CSCCC(NC(=O)CCc1ccccc1)c1nnc2ccccn12 (centres unmarked) [CBK304350] | 95.4%
COCCN1CC2=C(C1=O)C(c1ccc(F)cc1)NC(=O)N2 (centres unmarked) [CBK249447] | 81.9%
CC(C)(C)C(=O)Nc1ccc(S(=O)(=O)NC2CCCCC2)cc1 [CBK268783] | 118%
CCC(=O)N1CCN(CCCC(=O)c2ccc(F)cc2)CC1 [CBK025017C] | 108%
CC(C)(C)OC(=O)NCC(N)=S [CBK007979] | 100%
CS(=O)(=O)c1ncc(Cl)c(C(=O)N(Cc2ccccc2)c2ccccn2)n1 [CBK269489] | 95%

Compound | viability at 28.5 h, 10 µM
COc1ccc(CCCC(=O)n2c(=O)n(CCc3c[nH]c4ccccc34)c3ccccc32)cc1 [CBK106514] | 91.3%
CCn1cc(C2CN(S(=O)(=O)c3cccc(C(C)C)c3)CCO2)cn1 (centres unmarked) [CBK304227] | 105%
O=C(COC(=O)c1cc(O)nc2ccccc12)c1ccc(Br)cc1 [CBK262125] | 103%
CCc1nnc(NS(=O)(=O)c2ccc(NC(=S)Nc3ccc(F)cc3)cc2)s1 [CBK050037] | 89.7%
COc1ccccc1-c1nccnc1N(C)Cc1ccccc1 [CBK036774] | 102%
COc1ccc(C(=O)Nc2nc3c(C)c(C)ccc3s2)cc1 [CBK291210] | 107%
O=CNCCCc1nc2ccccc2n1CCc1ccccc1 [CBK269393] | 89.5%
CC(=O)CSc1nnc(-c2ccc(F)cc2)o1 [CBK068327] | 110%
Cc1cc(C)n2nc(SCc3nc4sc(C(=O)O)c(C)c4c(=O)[nH]3)nc2n1 [CBK297482] | 88.1%
CC1(C)CC(N(Cc2ccncc2)Cc2ccoc2)CC(C)(C)N1 [CBK283269] | 98.1%
CC(C)[C@H]1CN(Cc2ccco2)CCN1C(=O)NCc1ccccc1 [CBK284274] | 99.6%
COc1ccccc1CN1CCC(Cc2ccccc2-c2ccccc2)(C(N)=O)CC1 [CBK285719] | 101%
O=C(CC(NCCO)C(=O)O)Nc1cccc(C(F)(F)F)c1 (centres unmarked) [CBK267065] | 109%
CC(=O)Nc1ccc(S(=O)(=O)Nc2ccccc2C(=O)O)cc1 [CBK042361] | 107%
N=C(N)Nc1nc(-c2ccccc2)c2cc(F)ccc2n1 [CBK267350] | 82.7%
CC(=O)c1ccc(-c2cc(C(=O)NCc3cccc(C(F)(F)F)c3)cnc2-c2ccccc2)s1 [CBK036641] | 90.1%
COc1cncc(C(NC(=O)Cc2cn3ccsc3n2)[C@H]2C[C@H](O)C2)c1 (some centres unmarked) [CBK306642] | 97.2%
O=C(CC1CCN(C(=O)Cc2ccccc2)CC1)NC1(c2ccccc2)CCCC1 [CBK285965] | 101%
C[C@H](NC(=O)N1CCC2(CC1)NCCc1c2[nH]c2ccc(Cl)cc12)c1ccccc1 [CBK047046] | 90%
O=C(C1CC2C=CC1C21CC1)N1CCN(Cc2ccccn2)CC1 (centres unmarked) [CBK281443] | 86.3%
c1csc(-c2csc3ncnc(NCCCN4CCOCC4)c23)c1 [CBK267166] | 98.1%
CC1CCCCN1C(=O)c1cccc(Cn2cc(Br)c([N+](=O)[O-])n2)c1 (centres unmarked) [CBK058788] | 104%

Compound | viability at 28.5 h, 10 µM
O=C(O)c1cc(N/N=C/c2ccc(-c3ccc(Cl)c(C(=O)O)c3)o2)ccc1Cl [CBK262483] | 88.8%
Cc1noc(C)c1C(=O)NC(Cc1ccsc1)c1cccnc1 (centres unmarked) [CBK285100] | 90.3%
N#C/C(=C/c1cn(CCC(N)=O)c2ccccc12)c1ccc2c(c1)OCO2 [CBK267319] | 90.2%
CN1CCN(C)C(COc2ccc(C(F)(F)F)cn2)C1 (centres unmarked) [CBK113288] | 96.8%
O=C(c1ccc(NCCCCO)nc1)N1CCC(N2CCOCC2)CC1 [CBK306521] | 96%
O=C(NCCCN1CCCCC1)C1CC(=O)N(Cc2ccco2)C1 (centres unmarked) [CBK305145] | 93.1%
COCCNc1nc(-c2ccccc2OC)ccc1C(=O)N1CCN(C)CC1 [CBK105950] | 88.7%
O=C(O)c1cccc(Nc2ncnc3ccccc23)c1 [CBK073042] | 87.8%
O=C(Nc1ccc2c(c1)OCCO2)c1cnc(-c2ccc(Cl)cc2)c(-c2cccnc2)c1 [CBK037528] | 110%
Nc1nnnn1/N=C/c1cc(Cl)cc(Cl)c1OCc1ccc(Cl)cc1Cl [CBK263853] | 107%
CCCn1cc(NC(=O)C2(c3ccccc3)CCOCC2)ccc1=O [CBK304905] | 90.1%
COc1ccccc1-c1cnc2[nH]c(=O)n(CC(C)(C)CO)c2n1 [CBK064690] | 90.2%
CC(C)c1cccc(C(C)C)c1OCC(O)CN1CCCCC1 (centres unmarked) [CBK003079T] | 94.6%
COc1cccc(CNC(=O)C2CCCN(c3nc4c(-c5ccccc5)csc4c(=O)[nH]3)C2)c1 (centres unmarked) [CBK215463] | 99.8%
COc1cccc(/C=C(/C#N)c2ccc(F)cc2)c1OCc1cccc(C(=O)O)c1 [CBK267993] | 102%
COc1cc(CN2CCN(c3cc(C)ccc3C)CC2)cc([N+](=O)[O-])c1O [CBK261868] | 95.5%
Cc1cc(C)nc(Nc2noc(-c3ccccc3)n2)n1 [CBK269971] | 94.5%
O=C1Nc2ccccc2C(O)(C(=O)NCc2ccccc2)N1c1ccccc1 (centres unmarked) [CBK288555] | 91.1%
Cc1nc(-c2ccc(CCNC(=O)c3cc(O)nc4ccccc34)s2)cs1 [CBK297720] | 94.2%
CCc1ccc(C2CC(=O)c3c(ccc4ccccc34)N2)cc1 (centres unmarked) [CBK098787] | 93.8%
CC(C)C[C@@H]1N[C@H](C(=O)NCC2CCOCC2)Cc2c[nH]c3cccc1c23 [CBK289427] | 103%
COc1ccc(F)c(CN(CC2CCNCC2)C(=O)Nc2c(C)noc2C)c1 [CBK049811] | 112%

Compound | viability at 28.5 h, 10 µM
O=C(C[C@@H]1CCNC[C@@H]1Cc1cc(-c2ccccc2)on1)N1CCN(c2ccccc2)CC1 [CBK289148] | 83.2%
O=C(c1cccs1)N1C[C@H](c2ccc(F)cc2)[C@H]2CN(Cc3ccc(F)cc3)CC[C@H]21 [CBK285545] | 91.3%
Cc1cc2nccc([C@H]3CC[C@H](CNC(=O)C(C)C)CC3)n2n1 [CBK283475] | 94.9%
CC(C)c1nc(CCNC(=O)C2(Cn3ccnc3)CC2)no1 [CBK306828] | 86.2%
CCCCn1nc2[nH]c(=O)cc(C(F)F)c2c1C [CBK288011] | 93.8%
N#CCCn1cc(C(=O)N2CCCCC2)c(-c2cccs2)n1 [CBK306194] | 86.5%
FC(F)(F)c1ccc(OCCN2CCOCC2)nc1 [CBK113461] | 101%
O=S(=O)(c1ccc(N2CCNCC2)cc1)n1ccc2ccc(Br)cc21 [CBK034034C] | 70.6%
N=C1NC(=O)C(CC(=O)Nc2ccc(SC(F)F)cc2)S1 (centres unmarked) [CBK265648] | 91.1%
COc1ccc(C2CCN(C(=O)C3CCCO3)CC2)cc1 (centres unmarked) [CBK285473] | 102%
CCc1cc(Br)ccc1S(=O)(=O)Nc1ccnn1CC [CBK044900] | 92.7%
O=C(CN1CCN(S(=O)(=O)c2ccc(F)cc2)CC1)Nc1cccc(C(F)(F)F)c1 [CBK071925] | 92.7%
Cc1cccc(CN2CC[C@H]3[C@@H](C2)[C@H](c2ccsc2)CN3C(=O)c2ccc(F)cc2)c1 [CBK285639] | 94.9%
Nc1nc(=O)c2cnc3ccc(F)cc3c2s1 [CBK291195] | 111%
CNc1cc(N2CCN(S(=O)(=O)N(C)C)CC2)ccc1[N+](=O)[O-] [CBK269311] | 89.8%
COc1ccc(-c2cccc(CC3(C(=O)NCc4cccs4)CCOCC3)c2)cc1 [CBK286514] | 88.5%
O=C(Cc1c[nH]c2ccccc12)Nc1cccnc1N1CCNCC1 [CBK028265T] | 105%
Cc1nc(C2CCN(C(=O)c3ccnn3C)CC2)c2sccn12 [CBK285203] | 90.3%
CCOC(=O)CN1CCN(S(=O)(=O)c2ccc3ccccc3c2)CC1 [CBK043738] | 93.4%
COc1cc(C(=O)ON=C(N)Cc2cccc3ccccc23)cc(OC)c1OC [CBK264611] | 95.9%
O=S1(=O)CCC(c2nc(-c3ccc(Br)o3)no2)C1 (centres unmarked) [CBK306134] | 77.8%
Nc1nnc(Sc2nc3cc(Cl)c(Cl)cc3nc2N2CCCC2)s1 [CBK115267] | 98.9%

Same assay, conditions: human, hela cells, % viability, bulk resorufin, single well

Compound | viability at 28.5 h, 10 µM
O=C(N[C@@H]1C[C@H]1c1ccccc1)N1CCC2(CC1)OCc1cc(F)ccc1O2 [CBK060724] | 82.1%
